Measurements published in PubChem BioAssay (NCI).
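Cells were grown in 96-well plates and exposed to each compound for 48 hours at five concentrations; endpoints were interpolated linearly between bracketing concentrations, or set to the highest concentration if not reached. GI50 is the concentration that inhibits growth by half. The concentration for full growth arrest is given as TGI.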

What was measured:
Assay in all cases: growth of human tumour cells (NCI), 48 h
[1] = system: HS 578T breast
[2] = system: SN12C renal
[3] = system: NCI-H23 lung
[4] = system: NCI-H460 lung
[5] = system: KM12 colon
[6] = system: MOLT-4 leukemia
[7] = system: HCC-2998 colon
[8] = system: UO-31 renal
[9] = system: BT-549 breast
[10] = system: SR leukemia

Row | SMILES | GI50 [1] [nM] | TGI [1] [µM] | GI50 [2] [nM] | TGI [2] [µM] | GI50 [3] [nM] | TGI [3] [µM] | GI50 [4] [nM] | TGI [4] [µM] | GI50 [5] [nM] | TGI [5] [µM] | GI50 [6] [nM] | TGI [6] [µM] | GI50 [7] [nM] | TGI [7] [µM] | GI50 [8] [nM] | TGI [8] [µM] | GI50 [9] [µM] | TGI [9] [µM] | TGI [10] [µM] | GI50 [10] [nM]
1 | C[C@H]1[C@H](C)CC[C@]2(CO)CC[C@]3(C)C(=CC[C@@H]4[C@@]5(C)CCCNC(C)(C)[C@@H]5CC[C@]43C)[C@H]12 | 2050 | 4.86 | 1640 | 3.11 | 1650 | 3.26 | 1780 | 3.35 | 1840 | 3.51 | 1370 | 3.15 | 1750 | 3.46 | 1540 | 2.99 | – | – | – | –
2 | CCc1cc(C(=O)OC)cn1C(=N)c1ccc(Cl)cc1 | – | – | – | > 100 | – | > 100 | – | > 100 | – | > 100 | – | > 100 | – | > 100 | – | > 100 | – | – | – | –
3 | C(#Cc1ccccc1C#Cc1cccs1)c1cccs1 | – | – | – | – | 51600 | > 100 | 47400 | > 100 | 29500 | > 100 | 25800 | 80.1 | 24000 | 65.2 | 35800 | > 100 | > 100 | > 100 | – | –
4 | OC(c1ccccc1)(c1ccccc1)c1ccncc1 | – | – | – | > 100 | – | > 100 | – | > 100 | – | > 100 | – | > 100 | – | > 100 | – | > 100 | – | – | > 100 | –
5 | CCS(CC)(CC)CC1CCCC2=CCC(P(=O)(c3ccccc3)c3ccccc3)CC21 (stereo not given) | – | – | – | 26.3 | – | 25.6 | – | 24.8 | – | 30.6 | – | 25.2 | – | 22 | – | 20.3 | – | – | 25.5 | –
6 | COC1CC(OS(=O)(=O)c2ccc([N+](=O)[O-])cc2)C(OC(=O)c2ccccc2)C(C)O1 (stereo not given) | – | – | – | > 100 | – | > 100 | – | > 100 | – | > 100 | – | > 100 | – | > 100 | – | – | – | – | > 100 | –
7 | Cc1ccc(S(=O)(=O)OC2CSS(=O)CC2OS(=O)(=O)c2ccc(C)cc2)cc1 (stereo not given) | – | – | – | 28.5 | – | 29 | – | 46.4 | – | 31.3 | – | 9.03 | – | 30.9 | – | 33 | – | – | 8.15 | –
8 | O=[N+]([O-])c1cc(C(F)(F)F)cc([N+](=O)[O-])c1CCl | – | – | – | 3.08 | – | 5.7 | – | 21.4 | – | 4.92 | – | 1.39 | – | – | – | 20.6 | – | – | 2.72 | –
9 | CC(C)C1CC[C@@H](C)C[C@@]1(O)CC(N)=O (stereo not given in full) | – | – | – | > 100 | – | > 100 | – | > 100 | – | > 100 | – | > 100 | – | > 100 | – | > 100 | – | – | > 100 | –
10 | O=C(O)C(SC(=S)c1ccc(C(=S)SC(C(=O)O)c2ccccc2)cc1)c1ccccc1 (stereo not given) | – | – | – | > 100 | – | > 100 | – | > 100 | – | > 100 | – | > 100 | – | > 100 | – | > 100 | – | – | > 100 | –
11 | COc1cc2c(c(OC)c1OC)-c1ccc(SC)c(=O)cc1C(CO)C2 (stereo not given) | – | – | < 10 | > 100 | < 10 | < 0.01 | < 10 | – | < 10 | 0.079 | < 10 | > 100 | < 10 | – | < 10 | > 100 | – | – | 23.8 | < 10
